Laboratory results reported in patent US20080038198A1, “Method Of Screening Molecule Associated With Psychiatric Disorder” (MITSUBISHI PHARMA CORPORATION, priority 2004, published 2008).
“Also recorded” adds a separate entry of the source.

Legend:
Format in all cases: in vivo, Caenorhabditis elegans
nematodes [1] = assay: slowing response: number of body bends over 20 seconds on drug-containing assay plate; details: acute treatment on plate containing no feed
Method: Nematodes were bred on a lawn of E. coli OP50 coated on a 60-mm NGM plate (Genetics, 77, pp. 71-94, 1974) in an incubator at 20° C.
MAP hydrochloride was dissolved in sterilized pure water at a 100-fold concentration, and 50 μL of the solution was applied to a 35-mm NGM plate (5 mL). As a control group, sterilized water used as a solvent was similarly applied to prepare an assay plate. Apomorphine (hereinafter also abbreviated as “APO”) dissolved in 0.1% aqueous ascorbic acid as a solvent was applied as a solution of 100-fold concentration in a similar manner to prepare an assay plate. For a control group, 0.1% aqueous ascorbic acid was used. The periphery of each assay plate was applied with a 3.5 mol/L sucrose solution to prevent nematodes from invading the back of the plate. Adult-stage nematodes bred on the E. coli lawn were washed with S-basal buffer (Genetics, 77, pp. 71-94, 1974), then transferred to each of the aforementioned assay plates, and left at room temperature with light shielding for one hour in the MAP treatment or 30 minutes in the APO treatment, and the number of body bends over 20 seconds was counted under a stereoscopic microscope. […]

nematodes [2] = assay: imipramine treatment: number of eggs laid during 90 minutes
Method: Nematodes washed with S-basal buffer were transferred onto a 35-mm assay plate prepared by applying imipramine (hereinafter abbreviated as “IMI”) in the same manner as that used for MAP, and the number of eggs laid during 90 minutes was counted. Five nematodes were transferred to each plate, and the count was obtained for each plate.

nematodes [3] = assay: behavioral sensitization analysis: MAP pretreatment, washout on E. coli lawn, then drug challenge and body bend count
Method: MAP hydrochloride was dissolved in sterilized pure water at a 100-fold concentration, and 50 μL of the solution was applied to a 35-mm NGM plate (5 mL). As a control group, sterilized water used as a solvent was similarly applied to prepare an assay plate. Apomorphine (hereinafter also abbreviated as “APO”) dissolved in 0.1% aqueous ascorbic acid as a solvent was applied as a solution of 100-fold concentration in a similar manner to prepare an assay plate. For a control group, 0.1% aqueous ascorbic acid was used. The periphery of each assay plate was applied with a 3.5 mol/L sucrose solution to prevent nematodes from invading the back of the plate. Adult-stage nematodes bred on the E. coli lawn were washed with S-basal buffer (Genetics, 77, pp. 71-94, 1974), then transferred to each of the aforementioned assay plates, and left at room temperature with light shielding for one hour in the MAP treatment or 30 minutes in the APO treatment, and the number of body bends over 20 seconds was counted under a stereoscopic microscope. In the behavioral sensitization analysis, nematodes treated on the MAP-containing NGM plate for one hour were returned to the E. coli lawn, bred at 20° C. for a predetermined time and then treated with various drugs, and their behavior was observed.

nematodes [4] = assay: screening for chemical substance inhibiting establishment of MAP-induced behavioral sensitization; details: ondansetron 1 or 10 μM with 300 μM MAP and overnight; MAP challenge next day
Method: In an incubator inside of which was maintained at 20° C., nematodes were bred on an Escherichia coli lawn prepared by applying the E. coli OP50 strain on a 60-mm NGM plate (Genetics, 77, pp. 71-94, 1974).
MAP hydrochloride was dissolved in pure water to prepare a 30 mM solution, and 50 μL of the solution was applied to a 35-mm NGM plate (5 mL) to prepare a 300 μM MAP plate. This MAP plate was further applied with 50 μL of an ondansetron solution (0.1 or 1 mM) dissolved in 100 mM NaCl or 0.1 N hydrochloric acid and adjusted to neutral pH by using NaOH to complete an assay plate. Nematodes (adults) bred on the Escherichia coli lawn were washed with S-basal buffer (Genetics, 77, pp. 71-94, 1974) for a short period of time, and then incubated on each of the aforementioned assay plates at 20° C. for one hour with light shielding. For this procedure, the periphery of each assay plate was applied with a 3.5 M sucrose solution to prevent nematodes from invading the back of the assay plate. […] On the following day, the nematodes were washed with S-basal buffer for a short period of time and transferred onto a MAP challenge plate prepared by applying 50 μL of a 10 μM MAP solution on a 35-mm NGM plate (5 mL), and the number of body bends over 20 seconds was counted under a stereoscopic microscope.

CN1CCc2cccc3c2[C@H]1Cc1ccc(O)c(O)c1-3 [APO, Apomorphine]
locomotion (slowing response) (nematodes [1]): induced slowing responses in a concentration-dependent manner; also recorded: inhibited the locomotion in a concentration-dependent manner

CN(C)CCCN1c2ccccc2CCc2ccccc21 [IMI, imipramine]
egg laying behavior (nematodes [2]; IMI applied on NGM plate, eggs laid during 90 minutes): increased egg laying behavior in a concentration-dependent manner; also recorded: promoted egg laying in a concentration-dependent manner

CN[C@@H](C)Cc1ccccc1 [MAP, methamphetamine]
influence of MAP pretreatment on IMI-induced egg-laying behavior (nematodes [2]; MAP treatment on the previous day, IMI challenge): had no effect on IMI-induced egg-laying behavior; also recorded: had no influence on the egg-laying behavior promoted by IMI
locomotion (slowing response) (nematodes [1]): inhibited locomotion of nematodes in a concentration-dependent manner; also recorded: inhibited the locomotion in a concentration-dependent manner
susceptibility to MAP-induced slowing response (establishment of behavioral sensitization) (nematodes [3]; 300 μmol/L MAP experienced on the previous day, MAP challenge next day): increased susceptibility to a treatment with MAP was observed; also recorded: the susceptibility was increased
dependence of establishment of behavioral sensitization on MAP pretreatment concentration (nematodes [3]; MAP pretreatment on previous day at various concentrations): dependent on the MAP concentration used for pretreatment; also recorded: dependent on the concentration of MAP experienced on the previous day
APO-induced slowing response after MAP pretreatment (cross of behavioral sensitization) (nematodes [3]; MAP pretreatment, APO challenge): increased susceptibility to APO and induced slowing responses even at a low concentration; also recorded: enhanced by an MAP pretreatment
duration of MAP-induced behavioral sensitization (nematodes [3]; MAP washout period from pretreatment to challenge): at least 2 days

Cc1nccn1CC1CCc2c(c3ccccc3n2C)C1=O (stereo not drawn) [ondansetron]
establishment of MAP-induced behavioral sensitization (nematodes [4]): inhibition of establishment of MAP-induced behavioral sensitization; also recorded: exhibits an antagonistic action on the establishment of MAP-induced behavioral sensitization
